Laboratory results reported in patent publication US9932300B2, “N,N′-diarylurea compounds and N,N′-diarylthiourea compounds as inhibitors of translation initiation” (President and Fellows of Harvard College, priority 2009, dated 2018).

System: eIF2-GTP-Met-tRNAi ternary complex
Assay: Ternary complex assay (dual luciferase, firefly/renilla ratio) in stable KLN-tTA/pBISA-DL(ATF-4) cells; HTS and hit confirmation
Assay type: cell-based, mouse
Set-up: Activity 10 uM / Activity 2.5 uM / Activity 5 uM: unit not given here
Details: confirmed hits of the screen (Table 5); for Activity 2.5 uM: compound at 2.5 uM; for Activity 10 uM: compound at 10 uM; for Activity 5 uM: compound at 5 uM

SMILES | Activity 2.5 uM | Activity 10 uM | Activity 5 uM
CCOC(=O)c1ccc(Nc2nc3ccccc3o2)cc1 [Compound 114995] | 2.69 | 3.43 | 
c1ccc(N=Nc2ccc[nH]2)cc1 [Compound 115157] |  | 40.7 | 7.1
Cc1ccc([P+](Cc2ccccc2)(c2ccccc2)c2ccc(C)cc2)cc1 [Compound 116685] |  | 4.5 | 1.9
CN1c2ccc(Br)c[c]2[Sn]([CH3])([CH3])[c]2cc(Br)ccc21 [Compound 118026] |  | 40.338 | 37.512
CN1c2cccc[c]2[Sn]([CH3])([CH3])[c]2ccccc21 [Compound 118028] |  | 4.1 | 
CSC1=CC(=O)C=C(C)C1=O [Compound 119026] |  | 12.6 | 4
CCN1/C(=C\c2ccc3cc(C)ccc3[n+]2CC)[Se]c2ccccc21.[I-] [Compound 119675] | 5.52 | 8.78 | 
Oc1ccccc1/C=N\N=C\c1ccco1 [Compound 119688] |  | 3.9 | 2.45
CC(C)c1ccc(/C=C2\C=Cc3ccccc32)cc1 [Compound 120440] |  | 3.8 | 2.3
CC(=O)Oc1ccccc1/C=C/NC(=O)OC(C)(C)C [Compound 122241] |  | 5 | 3.2
CCCCCCCCCCCCCCCCCC[n+]1cccc(C(=O)c2ccccc2)c1.[Br-] [Compound 122844] | 1.77 | 13.27 | 
CCCCCCCC(=O)[O][Hg][c]1ccccc1 [Compound 122854] |  | 3.2 | 
CC(C)=CCC1=CC(=O)c2ccccc2C1=O [Compound 123507] |  | 10.5 | 2.41
CN(C)CC1CC2C3CC=C4CC(O)CCC4(C)C3CCC2(C)C1=O (stereo not drawn) [Compound 124738] | 0.79 | 3.7 | 
O=C(CCl)Nc1ccc(O)c2ccccc12 [Compound 125369] | 1.08 | 9.98 | 
CCC[CH2][Sn]([CH2]CCC)([CH2]CCC)[CH2]C(C)(C)c1ccccc1 [Compound 126650] | 0.64 | 8.04 | 
CCOC(=N)c1cn(C2OC(CO)C(O)C2O)c2nc[nH]c(=O)c12.Cl (stereo not drawn) [Compound 128665] | 17.83 | 3.18 | 
O=[N+]([O-])c1cc(Cl)ccc1NC(Nc1ccc(Cl)cc1[N+](=O)[O-])C(Cl)(Cl)Cl [Compound 130140] | 0.74 | 19.67 | 
CC(=O)Oc1ccc(N(CCCl)CCCl)cc1OC(C)=O [Compound 130216] | 0.51 | 4.77 | 
CCCCCc1[nH]nc(C(=O)OC)c1N=NN1CCOCC1 [Compound 131237] | 0.87 | 3.3 | 
c1ccc(-c2ccc3c4ccccc4ccn23)cc1 [Compound 131464] | 3.63 | 3.99 | 
CC[Si](CC)(CC)[Si](c1ccccc1)(c1ccccc1)c1ccccc1 [Compound 131584] | 0.89 | 7.95 | 

SMILES | Activity 2.5 uM | Activity 10 uM | Activity 5 uM
N=C(N)c1cn(C2OC(CO)C(O)C2O)c2ncnc(N)c12 (stereo not drawn) [Compound 131663] | 7 | 8.18 | 
COc1ccc(Cc2cncc3c(O)c(OC)ccc23)cc1O [Compound 131747] | 2.54 | 3.25 | 
CCCCCCCCCCCCOC(=O)c1cc(O)c(O)c(O)c1 [Compound 133463] |  | 4.63 | 8.8
Nc1c(Br)cc2c([nH]c(=O)c3cc(Cl)ccc32)c1Br [Compound 134404] | 5.44 | 12.72 | 
Cl.Clc1ccc(C2NC(c3ccc(Cl)cc3)NC(c3ccc(Cl)cc3)N2)cc1 (stereo not drawn) [Compound 135155] | 0.94 | 7.19 | 
O=S(=O)(c1ccccc1)N1CC2CC(Br)C(Br)CC21 (stereo not drawn) [Compound 135331] |  | 31.606 | 15.388
C(C[P+](c1ccccc1)(c1ccccc1)c1ccccc1)=C(c1ccccc1)c1ccccc1 [Compound 135741] |  | 7.226 | 8.605
CN1N=C([P+](c2ccccc2)(c2ccccc2)c2ccccc2)CC1(c1ccccc1)c1ccccc1.[I-] [Compound 135744] |  | 21.9 | 7
CCOC(=O)CN1N=C([P+](c2ccccc2)(c2ccccc2)c2ccccc2)CC1(c1ccccc1)c1ccccc1.[Br-] [Compound 135745] |  | 6.5 | 3.2
O=[N+]([O-])c1ccccc1N/N=C\c1c[nH]c2ccccc12 [Compound 135854] | 3.56 | 5.75 | 
COc1cccc2c1n([O-])c1cccc(=O)c-1[n+]2[O-].COc1cccc2c1n([O-])c1cccc(=O)c-1[n+]2[O-].[Cu+2] [Compound 136768] |  | 3.271 | 4.668
CCCN(CCC)N=Nc1c(-c2ccccc2)n[nH]c1-c1ccccc1 [Compound 136886] |  | 28.5 | 2.5
CCCCN(C)N=Nc1c(-c2ccccc2)n[nH]c1-c1ccccc1 [Compound 136889] |  | 16.7 | 3.9
CC(=O)Oc1c2c(c(CC=C(C)C)c3c1C(=O)C1=CC4CC5C(C)(C)OC(C/C=C(/C)C(=O)O)(C4=O)C15O3)OC(C)(CCC=C(C)C)C=C2 (stereo not drawn) [Compound 139221] |  | 9 | 2.1
CCCCCCCCCCCCCCNC(=O)C[N+](C)(C)Cc1ccccc1.[Cl-] [Compound 141112] | 0.98 | 3.76 | 
N#Cc1ncc(Cl)cc1[N+](=O)[O-] [Compound 141226] | 1.05 | 3.5 | 
O=C(Cc1ccccc1)c1ccc2c3c(ccc([N+](=O)[O-])c13)CC2 [Compound 142606] | 16.57 | 34.1 | 
CO[C@H]1/C=C/O[C@@]2(C)Oc3c(C)c(O)c4c(O)c(c(/C=N/Nc5ccc([N+](=O)[O-])cc5[N+](=O)[O-])c(O)c4c3C2=O)NC(=O)/C(C)=C\C=C\[C@H](C)[C@H](O)[C@@H](C)[C@@H](O)[C@@H](C)[C@H](OC(C)=O)[C@@H]1C [Compound 144126] |  | 7.3 | 1.3
Cl.S=C(N/N=C/c1ccccn1)N/N=C/c1ccccn1 [Compound 146007] |  | 3.4 | 1.8
CC[N+](CC)=c1ccc2nc3c(cc(N)c4ccccc43)oc-2c1.[Cl-] [Compound 146184] | 3.13 |  | 
c1ccc(N/N=C(/CC/C(=N\Nc2ccccc2)c2ccccc2)c2ccccc2)cc1 [Compound 146216] | 2.73 | 5.04 | 
CC(C)(C)C[CH2][Hg][Cl] [Compound 146249] | 3.04 |  | 

SMILES | Activity 2.5 uM | Activity 10 uM | Activity 5 uM
CCCCCCCCCCCc1n(Cc2ccccc2)c2ccccc2[n+]1C.[Br-] [Compound 148342] |  | 19.7555 | 14.51
CCCCSC1=CC(=O)c2ccccc2C1=O [Compound 149109] | 18.18 |  | 
COc1cccc2c1C(=O)c1c(O)c3c(c(O)c1C2=O)C[C@@](O)(C(=O)COC(C)=O)C[C@@H]3OC1CC(N)C(O)C(C)O1.Cl (stereo partly drawn) [Compound 149581] |  | 4.3 | 3.5
OC(Br)C1C(c2ccccc2)N1C1CCCCC1 (stereo not drawn) [Compound 150279] | 0.62 | 3.9 | 
Br.O=C(/C(=C\c1ccccc1)CN1CCOCC1)c1ccc(Br)cc1 [Compound 150311] |  | 39.7 | 36.67
O=C(/C=C(\CN1CCCCC1)c1ccccc1)c1ccccc1 [Compound 150320] |  | 16.4 | 19.9
Cc1ccc2c(c1)SCc1c-2[nH]c2ccccc12 [Compound 150787] | 2.94 | 5.6 | 
CC(N)c1ccc(OCCOc2ccc(C(C)(C)CC(C)(C)C)cc2)cc1 (stereo not drawn) [Compound 151117] | 0.85 | 12.07 | 
CC(C)(C)CC(C)(C)c1ccc(OCCOc2ccc(C(=O)Nc3ccc([N+](=O)[O-])cc3)cc2)cc1 [Compound 151119] | 0.72 | 6.62 | 
CCCCCC[N+](CCCCCC)(CCCCCC)CCCCCC.O=C([O-])c1ccccc1 [Compound 152111] |  | 10.391 | 10.85
CCCCCCCCCCCCCCC[N+](C)(C)C.[Cl-] [Compound 155015] | 2.19 | 3.73 | 
CN(C)c1ccc(C(C[N+](=O)[O-])(c2ccc(N(C)C)cc2)c2ccc(N(C)C)cc2)cc1 [Compound 156572] |  | 7.9345 | 7.884
O=C(Nc1ccccc1O)/C(Cl)=C/Cl [Compound 157236] | 0.75 | 3.4 | 
CCOC(=O)c1[nH]c(-c2ccc(OC)cc2)c(C(=O)OCC)c1-c1ccccc1 [Compound 157306] | 1.77 | 3.94 | 
c1ccc2c(c1)O[As](O[As]1Oc3ccccc3O1)O2 [Compound 157382] | 0.68 | 9.04 | 
Cc1cc(C)c(C(=O)Oc2ccc3ccccc3c2)c(C)c1 [Compound 157507] | 2.07 | 3.33 | 
NNc1nc2ccc([N+](=O)[O-])cc2s1 [Compound 158091] | 1.66 | 4.83 | 
O=C(Nc1ccc2ccccc2c1)c1ccc(Cl)cc1Cl [Compound 158959] | 3.2 | 4.01 | 
c1ccc2ncc(-c3ccc4ccccc4n3)cc2c1 [Compound 159209] |  | 8.5 | 4.3
CC1=C(Br)C(=O)C(c2c(C)cc(C)c(Br)c2C)=C(Br)C1=O [Compound 159569] |  | 5.804 | 3.21
